In patent publication US11753407B2, “Compounds for treating spinal muscular atrophy” (PTC Therapeutics, Inc., priority 2012, dated 2023):

Key:
[1] = test system: Smn protein in SMA patient fibroblast cells (GM03813); assay: Smn protein assay in cultured cells (SMN HTRF); format: cell-based, human; settings: SMA patient fibroblast cells, 48 hours; for EC1.5x for Smn protein expression: 7-point concentration curve, SMN HTRF, concentration producing 1.5 times Smn protein vs DMSO vehicle control; for maximum fold (Fold) increase of Smn protein: 7-point concentration data, fold relative to vehicle control
Procedure, shortened: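 Cells were cultured 72 h, seeded at 5,000/well and dosed with seven concentrations (3.16-fold apart) for 48 h. HTRF on lysates, read at 665 and 620 nm, gave blank-corrected ΔF values relative to DMSO. Potency is reported as EC1.5×, efficacy as maximal fold Smn increase.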

[2] = test system: SMN2 minigene mRNA (SMN2-A minigene) in HEK293H cells; assay: SMN2 minigene mRNA splicing RT-qPCR assay in cultured cells; format: cell-based, human; settings: Homo sapiens, HEK293-H; concentration increasing full length SMN2 mRNA 1.5-fold relative to vehicle-treated cells; HEK293H cells with SMN2-A minigene, 24 hours, 7-point concentration data; read-out: EC1.5x for production of full length SMN2 mRNA
Procedure, shortened: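 EC1.5× values derive from a 24 h treatment of SMN2-A minigene HEK293H cells and GAPDH-normalized RT-qPCR of exon 7-included minigene mRNA relative to vehicle-treated cells.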

Structure (SMILES)	EC1.5x for Smn protein expression [1]	maximum fold (Fold) increase of Smn protein [1]	EC (1.5-fold increase) [2] [µM]
Cc1nc2ccc(-c3cc(=O)n4cc(N5CCN(C)CC5)ccc4n3)cn2n1 [Compound 805, 7-(4-methylpiperazin-1-yl)-2-(2-methyl[1,2,4]triazolo[1,5-a]pyridin-6-yl)-4H-pyrido[1,2-a]pyrimidin-4-one]	*** (an EC1.5× between >0.3 μM and ≤1 μM is indicated by three stars (***))	***** (a fold increase >1.65 is indicated by five stars (*****))	0.1 to 0.3
Cc1cn2cc(-c3cc(=O)n4cc(N5CCN(C)CC5)ccc4n3)cc(C(F)(F)F)c2n1 [Compound 806, 7-(4-methylpiperazin-1-yl)-2-[2-methyl-8-(trifluoromethyl)imidazo[1,2-a]pyridin-6-yl]-4H-pyrido[1,2-a]pyrimidin-4-one]	**** (an EC1.5x≤0.3 μM is indicated by four stars (****))	***** (a fold increase >1.65 is indicated by five stars (*****))	< 0.1
Cc1cn2cc(-c3cc(=O)n4cc(N5CCN(C)CC5)ccc4n3)cc(C#N)c2n1 [Compound 807, 2-methyl-6-[7-(4-methylpiperazin-1-yl)-4-oxo-4H-pyrido[1,2-a]pyrimidin-2-yl]imidazo[1,2-a]pyridine-8-carbonitrile]	**** (an EC1.5x≤0.3 μM is indicated by four stars (****))	***** (a fold increase >1.65 is indicated by five stars (*****))	< 0.1
Cc1cn2cc(-c3cc(=O)n4cc(N5CCN(C)CC5)ccc4n3)cc(C)c2n1 [Compound 808, 2-(2,8-dimethylimidazo[1,2-a]pyridin-6-yl)-7-(4-methylpiperazin-1-yl)-4H-pyrido[1,2-a]pyrimidin-4-one]	**** (an EC1.5x≤0.3 μM is indicated by four stars (****))	***** (a fold increase >1.65 is indicated by five stars (*****))	< 0.1
Cc1cn2cc(-c3cc(=O)n4cc(N5CCNC6(CC6)C5)ccc4n3)cc(C)c2n1 [Compound 809, 7-(4,7-diazaspiro[2.5]oct-7-yl)-2-(2,8-dimethylimidazo[1,2-a]pyridin-6-yl)-4H-pyrido[1,2-a]pyrimidin-4-one]	**** (an EC1.5x≤0.3 μM is indicated by four stars (****))	***** (a fold increase >1.65 is indicated by five stars (*****))	< 0.1
Cc1cn2cc(-c3cc(=O)n4cc(C5CCN(C)CC5)ccc4n3)cc(F)c2n1 [Compound 810, 2-(8-fluoro-2-methylimidazo[1,2-a]pyridin-6-yl)-7-(1-methylpiperidin-4-yl)-4H-pyrido[1,2-a]pyrimidin-4-one]	**** (an EC1.5x≤0.3 μM is indicated by four stars (****))	***** (a fold increase >1.65 is indicated by five stars (*****))	< 0.1
Cc1cn2cc(-c3cc(=O)n4cc(C5(O)CCNCC5)ccc4n3)cc(F)c2n1 [Compound 811, 2-(8-fluoro-2-methylimidazo[1,2-a]pyridin-6-yl)-7-(4-hydroxypiperidin-4-yl)-4H-pyrido[1,2-a]pyrimidin-4-one]	*** (an EC1.5× between >0.3 μM and ≤1 μM is indicated by three stars (***))	***** (a fold increase >1.65 is indicated by five stars (*****))	0.3 to 1
CCc1nc(C)cn2nc(-c3cc(=O)n4cc(N5CCN6CCC[C@H]6C5)ccc4n3)cc12 [Compound 812, 2-(4-ethyl-6-methylpyrazolo[1,5-a]pyrazin-2-yl)-7-[(8aS)-hexahydropyrrolo[1,2-a]pyrazin-2(1H)-yl]-4H-pyrido[1,2-a]pyrimidin-4-one]	**** (an EC1.5x≤0.3 μM is indicated by four stars (****))	***** (a fold increase >1.65 is indicated by five stars (*****))	< 0.1
CCc1nc(C)cn2nc(-c3cc(=O)n4cc(N5CCN6CCC[C@@H]6C5)ccc4n3)cc12 [Compound 813, 2-(4-ethyl-6-methylpyrazolo[1,5-a]pyrazin-2-yl)-7-[(8aR)-hexahydropyrrolo[1,2-a]pyrazin-2(1H)-yl]-4H-pyrido[1,2-a]pyrimidin-4-one]	**** (an EC1.5x≤0.3 μM is indicated by four stars (****))	***** (a fold increase >1.65 is indicated by five stars (*****))	< 0.1
CCc1nc(C)cn2nc(-c3cc(=O)n4cc(N5CC[C@@H](N(C)C)C5)ccc4n3)cc12 [Compound 814, 7-[(3R)-3-(dimethylamino)pyrrolidin-1-yl]-2-(4-ethyl-6-methylpyrazolo[1,5-a]pyrazin-2-yl)-4H-pyrido[1,2-a]pyrimidin-4-one]	**** (an EC1.5x≤0.3 μM is indicated by four stars (****))	***** (a fold increase >1.65 is indicated by five stars (*****))	< 0.1
CCc1nc(C)cn2nc(-c3cc(=O)n4cc(N5CC[C@H](N(C)C)C5)ccc4n3)cc12 [Compound 815, 7-[(3S)-3-(dimethylamino)pyrrolidin-1-yl]-2-(4-ethyl-6-methylpyrazolo[1,5-a]pyrazin-2-yl)-4H-pyrido[1,2-a]pyrimidin-4-one]	**** (an EC1.5x≤0.3 μM is indicated by four stars (****))	***** (a fold increase >1.65 is indicated by five stars (*****))	< 0.1
Cc1cn2cc(-c3cc(=O)n4cc(N5CCN6CCC[C@@]6(C)C5)ccc4n3)cc(F)c2n1 [Compound 816, 2-(8-fluoro-2-methylimidazo[1,2-a]pyridin-6-yl)-7-[(8aS)-8a-methylhexahydropyrrolo[1,2-a]pyrazin-2(1H)-yl]-4H-pyrido[1,2-a]pyrimidin-4-one]	**** (an EC1.5x≤0.3 μM is indicated by four stars (****))	**** (a fold increase between >1.5 and ≤1.65 is indicated by four stars (****))	< 0.1
CCc1nc(C)cn2nc(-c3cc(=O)n4cc(N5CCN(CC)CC5)cc(C)c4n3)cc12 [Compound 817, 2-(4-ethyl-6-methylpyrazolo[1,5-a]pyrazin-2-yl)-7-(4-ethylpiperazin-1-yl)-9-methyl-4H-pyrido[1,2-a]pyrimidin-4-one]	**** (an EC1.5x≤0.3 μM is indicated by four stars (****))	***** (a fold increase >1.65 is indicated by five stars (*****))	< 0.1
CCc1nc(C)cn2nc(-c3cc(=O)n4cc(N5CCN6CCC[C@H]6C5)cc(C)c4n3)cc12 [Compound 818, 2-(4-ethyl-6-methylpyrazolo[1,5-a]pyrazin-2-yl)-7-[(8aS)-hexahydropyrrolo[1,2-a]pyrazin-2(1H)-yl]-9-methyl-4H-pyrido[1,2-a]pyrimidin-4-one]	*** (an EC1.5× between >0.3 μM and ≤1 μM is indicated by three stars (***))	***** (a fold increase >1.65 is indicated by five stars (*****))	0.1 to 0.3
CCN1CCN(c2ccc3nc(-c4cc(C)c5nc(C)cn5c4)cc(=O)n3c2)CC1 [Compound 819, 2-(2,8-dimethylimidazo[1,2-a]pyridin-6-yl)-7-(4-ethylpiperazin-1-yl)-4H-pyrido[1,2-a]pyrimidin-4-one]	**** (an EC1.5x≤0.3 μM is indicated by four stars (****))	***** (a fold increase >1.65 is indicated by five stars (*****))	< 0.1
Cc1cn2cc(-c3cc(=O)n4cc(N5CCN6CCC[C@H]6C5)ccc4n3)cc(C)c2n1 [Compound 820, 2-(2,8-dimethylimidazo[1,2-a]pyridin-6-yl)-7-[(8aS)-hexahydropyrrolo[1,2-a]pyrazin-2(1H)-yl]-4H-pyrido[1,2-a]pyrimidin-4-one]	**** (an EC1.5x≤0.3 μM is indicated by four stars (****))	***** (a fold increase >1.65 is indicated by five stars (*****))	< 0.1
Cc1cn2cc(-c3cc(=O)n4cc(N5CCN6CCCC6(C)C5)ccc4n3)cc(C)c2n1 (stereo not drawn) [Compound 821, 2-(2,8-dimethylimidazo[1,2-a]pyridin-6-yl)-7-(8a-methylhexahydropyrrolo[1,2-a]pyrazin-2(1H)-yl)-4H-pyrido[1,2-a]pyrimidin-4-one]	**** (an EC1.5x≤0.3 μM is indicated by four stars (****))	***** (a fold increase >1.65 is indicated by five stars (*****))	< 0.1
CCc1nc(C)cn2nc(-c3cc(=O)n4cc(N5CC[C@@H](N(C)C)C5)cc(C)c4n3)cc12 [Compound 822, 7-[(3R)-3-(dimethylamino)pyrrolidin-1-yl]-2-(4-ethyl-6-methylpyrazolo[1,5-a]pyrazin-2-yl)-9-methyl-4H-pyrido[1,2-a]pyrimidin-4-one]	*** (an EC1.5× between >0.3 μM and ≤1 μM is indicated by three stars (***))	**** (a fold increase between >1.5 and ≤1.65 is indicated by four stars (****))	0.1 to 0.3
